Source: patent US5182300A, “Furosemide salts” (Roussel Uclaf, priority 1989, dated 1993)
Counter-ions that a name gives are not always drawn.

Assays:
[1] = system: atopic asthmatic patients; settings: aerosol; bronchospasms induced by physical exercises, ultrasonic fogs and immunological stimulations; 10 mg/ml sodium salt solution inhaled for 15 to 20 minutes; cited from earlier work
[2] = initial measurement of the pH of the solution; assay type: physicochemical

| pH (initial measurement) ([2]; Sol. 1, water, 97.2 mg/ml) | pH (initial measurement) ([2]; Sol. 2, physiol. sol., 184.4 mg/ml) | pH (initial measurement) ([2]; Sol. 3, water, 275.3 mg/ml) | pH (initial measurement) ([2]; Sol. 4, water, 125.0 mg/ml, kept at 60° C.) | pH (initial measurement) ([2]; Sol. 5, water, 125.0 mg/ml, kept at 25° C. away from the light) | pH (initial measurement) ([2]; Sol. 6, water, 90.4 mg/ml) | pH (initial measurement) ([2]; Sol. 7, water containing 4% by weight of mannitol, 72.1 mg/ml) | Compound | prevention of bronchospasms [1] |
| --- | --- | --- | --- | --- | --- | --- | --- | --- |
|  |  |  |  |  |  |  | NS(=O)(=O)c1cc(C(=O)O)c(NCc2ccco2)cc1Cl [furosemide, 4-chloro-N-furyl-5-sulfamoyl-anthranylic acid] | prevent bronchospasms |
| 7.00 | 7.09 | 7.32 | 7.06 | 7.06 | 6.95 | 7.06 | NS(=O)(=O)c1cc(C(=O)O)c(NCc2ccco2)cc1Cl [furosemide salt of L-lysine, L-lysine salt of furosemide] |  |
